The record followed here is patent US20240301023A1 (priority 2020, published 2024).

Like-named read-outs stand apart in the source and are kept apart here. Square brackets hold non-standard residues; d marks the D form. Peptide text beside a SMILES is read from it. Phe(4-NO2) = N[C@@H](Cc1ccc([N+](=O)[O-])cc1)C(=O)O; Phe(4-Cl) = N[C@@H](Cc1ccc(Cl)cc1)C(=O)O; NMeR = CN[C@@H](CCCNC(=N)N)C(=O)O; Aoc = NCCCCCCCC(=O)O; Sar = CNCC(=O)O

The subject of data set [1] is Freund's Complete Adjuvant model of inflammatory nociception. The note with it: rat, in vivo.
The target in data set [2] is Kappa opioid receptor (KOR) (Homo sapiens, UniProt P41145). The data set can be described thus: cell-based. In kind it is cell-based.
Data set [3] concerns the target Delta opioid receptor (DOR) (Homo sapiens, UniProt P41143). The data set can be described thus: cell-based. In kind it is cell-based.
The next data set addresses Mu opioid receptor (MOR) (Homo sapiens, UniProt P35372). Briefly: cell-based. In kind it is cell-based.
The target of data set [4] is T1, bovine pancreatic trypsin (Bos taurus, UniProt P00760).
T1 construct: from tissue; host or cells: bovine pancreas
T1 sequence (P00760 24-246): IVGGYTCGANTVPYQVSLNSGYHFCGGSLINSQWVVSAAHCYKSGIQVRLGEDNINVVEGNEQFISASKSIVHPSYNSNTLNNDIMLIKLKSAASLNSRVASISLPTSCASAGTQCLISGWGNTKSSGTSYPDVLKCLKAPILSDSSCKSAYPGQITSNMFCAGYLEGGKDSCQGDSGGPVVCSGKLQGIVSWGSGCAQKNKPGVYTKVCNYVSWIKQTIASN
Briefly: Stability in bovine trypsin. In kind it is in vitro ADME. The settings on record: bovine pancreatic trypsin 2.5 μg/mL, NH4HCO3 buffer pH 8-8.5, 37° C., 100 μM peptide. On the procedure:
The stability of the peptides was analysed in typsin, plasma and water. Stability of linear peptides is generally low due to rapid degradation by endogenous peptidases and proteases. While stability in bodily fluids is important, absolute stability may not be prudent or desirable due to potential build-up in vivo leading to adverse side effects, and/or hazards to the environment and recirculation of exceptionally stable compounds in waterways. Thus, compounds that are extremely stable in either plasma or typsin are not generally considered “drug-like”.
Stability in bovine trypsin was analysed for SEQ ID Nos. 2 to 7 and 11 to 17. Peptides were added to trypsin solution (bovine pancreatic trypsin 2.5 μg/mL in NH4HCO3 buffer, pH approximately 8-8.5, 37° C.) in a water bath with final concentrations of 100 μM peptide. A 50 μL sample was taken immediately and precipitated in 150 μL of cold acetonitrile (9:1 acetonitrile:water) This sample became the baseline, or t=0 min sample. The trypsin peptide mixture was immediately returned to the water bath and subsequent 50 μL samples were taken at 5, 10, 15, 30, 60 and 120 min. At each time point, the 50 μL sample was collected and immediately added to cold acetonitrile (ACN). Each sample was vortexed for 30 sec and then centrifuged at room temperature (RT) (13K rpm, 5 min). 150 μL of the supernatant was taken and directly place in a glass HPLC vial for LCMS analysis.

A further data set can be described thus: Stability in rat plasma. Type of data set: in vitro ADME. The settings on record: both sexes, Wistar, 37° C., 100 μM peptide. The protocol: Stability in plasma was assessed in rat plasma. Plasma was collected in-house from adult mixed-gender Wistar rats, prepared using 2% EDTA as per standard practice. Peptides were added to the rat plasma samples at 37° C. in a water bath with final concentrations of 100 μM (1:9 peptide in water:plasma). The assay was then carried out in the same manner as the assay in bovine trypsin.

Data set [5] has as its target T2, KOR (Homo sapiens, UniProt P41145). The data set can be described thus: biochemical. In kind it is binding.
The target of data set [6] is T2, KOR. The data set can be described thus: cell-based. In kind it is cell-based.
The target of another data set is KOPr (Homo sapiens, UniProt P41145). In kind it is cell-based.
A short description of data set [7]: Pharmacokinetic parameters after i.v. administration in rats. Type of data set: in vivo. The settings on record: rat; for half-life / clearance / Vd: iv, dose 0.3 mg/kg (SEQ ID NO. 19), 1 mg/kg (SEQ ID NO. 24); for clearance: read-out: CLtotal; for Vd: read-out: Vdss; for opioid-like adverse effects (e.g. respiratory depression, sedation): 0.3 mg/kg (SEQ ID NO 19), 1 mg/kg (SEQ ID NO 24). An excerpt: Methods are as previously reported (Hill et al., ACS Med. Chem. Lett. 2014, 5(10), 1148-51; Lohman et al., Chem. Commun. (Camb), 2019, 55(89), 13362-13365; Neilsen et al., Org. Lett., 2012, 14(22), 5720-3; Neilsen et al, Chembiochem, 2015, 16(16), 2289-93; Justyna et al., Current Drug Targets, 2013, 14(7), 798-816)). Rats were surgically implanted with a jugular vein catheter (sterile polyethylene, o.d. 0.96 mm i.d. 0.58 mm, Microtube Extrusions, Aust.) and allowed to recover overnight. Baseline blood samples (t=0) were taken prior to peptide administration directly from the indwelling jugular vein catheter. Peptide was administered directly via the catheter (i.v route), followed by a 200 μL chaser volume of heparinised saline (20 U/mL) to flush the line. Further blood samples (200 μL/sample) were collected directly from the intravenous catheter at t=1, 5 15, 30, 60, 90 120 as 180 minutes post-administration. Volumes taken were replaced with heparinised saline to avoid hypovolaemia. Blood samples were immediately centrifuged (14 k rpm, 5 min) and plasma supernatant snap frozen on dry ice for later processing. Plasma samples were thawed and diluted 1 in 4 acetonitrile, vortexed, sonicated and centrifuged. Supernatants were transferred to HPLC vials for LCMS analysis.
A Triple Quad Mass-Spectrometer (model 6460, Agilent Technologies) coupled to a Bidentate C18 HPLC column (Cogent, 100 Å, 4 μM) was used to analyse all samples. Separations were carried out using a binary solvent gradient. A Multiple Reaction Monitoring (MRM) protocol was developed for each individual peptide to maximise sensitivity of the Mass-spec and optimise the Limit of Detection (LOD) from a serially diluted standard curve, performed in both acetonitrile solvent and neat rat plasma.
Samples were analysed using MassHunter Software packages, and area under the curve (AUC) was measured for each peak of interest in the MRM, as a direct measure of concentration of compound ions in the sample. AUCs were converted to plasma concentrations (Cp; μg/mL and μM) using the standard curves generated in plasma. Data was analysed using MS Excel software. A two compartment model was adopted to determine the pharmacokinetic properties of each peptide in the rat. The first phase describes the distribution throughout the circulatory compartment, and the second phase describes the elimination/steady state concentration in plasma/tissue. Plasma half-life, volume of distribution and clearance were determined from the steady-state elimination phase.

The mark [8] stands for this setting: read-out: Activity (EC50, nM) KOR.

T2 sequence (P41145 whole entry): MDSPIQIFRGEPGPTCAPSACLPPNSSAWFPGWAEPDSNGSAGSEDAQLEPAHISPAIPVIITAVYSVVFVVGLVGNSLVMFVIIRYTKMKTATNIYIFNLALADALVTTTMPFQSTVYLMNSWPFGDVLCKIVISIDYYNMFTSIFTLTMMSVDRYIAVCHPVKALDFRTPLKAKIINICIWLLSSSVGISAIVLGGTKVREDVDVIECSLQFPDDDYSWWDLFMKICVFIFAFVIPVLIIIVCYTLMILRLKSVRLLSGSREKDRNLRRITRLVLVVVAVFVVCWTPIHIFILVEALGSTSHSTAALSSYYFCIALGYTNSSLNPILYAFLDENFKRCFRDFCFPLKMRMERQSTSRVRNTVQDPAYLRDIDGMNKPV
Chain of Kappa opioid receptor (KOR) (P41145 whole entry): as above
Chain of KOPr (P41145 whole entry): as above
Chain of Delta opioid receptor (DOR) (P41143 whole entry): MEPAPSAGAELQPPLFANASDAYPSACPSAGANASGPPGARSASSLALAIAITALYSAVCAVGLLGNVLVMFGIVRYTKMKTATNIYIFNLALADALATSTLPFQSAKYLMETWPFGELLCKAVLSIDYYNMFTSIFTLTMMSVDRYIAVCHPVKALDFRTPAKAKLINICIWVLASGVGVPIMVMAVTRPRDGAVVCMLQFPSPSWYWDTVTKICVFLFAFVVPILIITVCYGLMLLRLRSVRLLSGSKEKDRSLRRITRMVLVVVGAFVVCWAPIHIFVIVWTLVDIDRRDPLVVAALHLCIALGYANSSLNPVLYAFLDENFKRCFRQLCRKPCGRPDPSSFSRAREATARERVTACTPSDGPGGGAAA
Chain of Mu opioid receptor (MOR) (P35372 whole entry): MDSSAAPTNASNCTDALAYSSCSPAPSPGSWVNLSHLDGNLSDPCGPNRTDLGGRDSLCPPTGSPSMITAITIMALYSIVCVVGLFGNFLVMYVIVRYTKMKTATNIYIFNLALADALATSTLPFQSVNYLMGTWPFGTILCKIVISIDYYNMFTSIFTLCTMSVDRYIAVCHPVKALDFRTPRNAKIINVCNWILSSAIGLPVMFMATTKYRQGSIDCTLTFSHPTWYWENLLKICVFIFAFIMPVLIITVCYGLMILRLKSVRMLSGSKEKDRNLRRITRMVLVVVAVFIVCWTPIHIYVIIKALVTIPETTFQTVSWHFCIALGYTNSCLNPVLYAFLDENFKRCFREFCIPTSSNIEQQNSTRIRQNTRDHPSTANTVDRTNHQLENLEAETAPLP

For the compound `CN1CC[C@]23c4c5ccc(O)c4O[C@H]2[C@@H](O)C=C[C@H]3[C@H]1C5` [Morphine, reference compound], the “paw withdrawal threshold in the contralateral (uninflamed, untreated) paw at 120 minutes compared to baseline” value in data set [1] was “significantly reduced”.
One may read the EC50 as the midpoint of the concentration-response curve. Broadly, the half-life is the time needed for the level to fall by half in the phase considered. The term IC50 denotes the concentration that gives 50% inhibition. In general, Ki refers to a measure of affinity in units of concentration, obtained from inhibition or displacement. Regarding `CC(C)C[C@H](NC(=O)[C@H](Cc1ccc([N+](=O)[O-])cc1)NC(=O)CN(C)C(=O)[C@@H](N)Cc1ccc(O)cc1)C(=O)N[C@@H](CCCNC(=N)N)C(=O)N[C@H](CCCNC(=N)N)C(N)=O` [SEQ ID NO. 4, NH2-Tyr-Sar-(4-NO2)Phe-Leu-Arg-DArg-NH2] (H-Y[Sar][Phe(4-NO2)]LR[dR]-NH2), in data set [2], the EC50 was 8.4 nM; the “cAMP activity in the presence of naloxone, KOR cells” value (“cAMP activity in the presence” below) is “significantly inhibited”; the “cAMP assay KOR 1 μM” value was found to be 34.93; the “cAMP assay KOR 10 μM” value is on record as 40.29. Moreover, in data set [3], the “cAMP assay DOR 1 μM” value is on record as −0.75 and the “cAMP assay DOR 10 μM” value was determined as 2.04. Moreover, on Mu opioid receptor (MOR), the “cAMP assay MOR 1 μM” value is listed as 0.17 and the “cAMP assay MOR 10 μM” value came out at 2.52. Moreover, the “Half Life Trypsin” value in data set [4] was 15.4 min. In addition, in “Stability in rat plasma”, the half-life at 100 µM was 71 min. The IC50 on KOR [5] (read-out: IC50) is 30.2 nM. Besides, the inhibitory constant (Ki) on KOR [5] (read-out: Ki) was 2.8 nM. The “KOR desensitisation (change of cAMP maximal response after pre-treatment)” value on KOR [6] is recorded as “no sign of desensitisation”. At KOPr, the “bias factor (β) relative to U50488H” value is “bias towards cAMP” and the pERK1/2 activity result is recorded as “failed to show any pERK activity”. Besides, the “Area under the curve (AUC) efficacy compared to U50488H” value in data set [1] is on record as “significantly better efficacy than U50488H”.
With `CC(C)C[C@H](NC(=O)[C@H](Cc1ccc([N+](=O)[O-])cc1)NC(=O)CN(C)C(=O)[C@@H](N)Cc1ccc(O)cc1)C(=O)N[C@@H](CCCNC(=N)N)C(=O)N(C)[C@@H](CCCNC(=N)N)C(N)=O` [SEQ ID NO. 18, NH2-Tyr-Sar-(4-NO2)Phe-Leu-Arg-NMA-NH2] (H-Y[Sar][Phe(4-NO2)]LR[NMeR]-NH2), in [2] (setting [8]), the EC50 was determined as 1.77 nM. The “KOR desensitisation (change of cAMP maximal response after pre-treatment)” value at KOR [6] is “no sign of desensitisation”. At KOPr, the “bias factor (β) relative to U50488H” value was “bias towards cAMP” and the pERK1/2 activity result is recorded as “failed to show any pERK activity”.
`CC(C)C[C@H](NC(=O)[C@H](Cc1ccc([N+](=O)[O-])cc1)NC(=O)CN(C)C(=O)[C@@H](N)Cc1ccc(O)cc1)C(=O)N(C)[C@@H](CCCNC(=N)N)C(=O)N(C)[C@@H](CCCNC(=N)N)C(N)=O` [SEQ ID NO. 19, NH2-Tyr-Sar-(4-NO2)Phe-Leu-NMA-NMA-NH2] (H-Y[Sar][Phe(4-NO2)]L[NMeR][NMeR]-NH2): the “cAMP activity in the presence” value in [2] is given as “significantly inhibited”. Besides, the concentration for a half-maximal effect (EC50) in data set [2] (setting [8]) came out at 31.1 nM. Also, at KOR [5], the “Log IC50” value is recorded as −5.71. The IC50 at KOR [5] (read-out: IC50) was 1950 nM. The inhibition constant (Ki) on KOR [5] (read-out: Ki) turned out to be 180 nM. The “KOR desensitisation (change of cAMP maximal response after pre-treatment)” value at KOR [6] is reported as “no sign of desensitisation”. For the same compound, at KOPr, the “bias factor (β) relative to U50488H” value was “bias towards cAMP” and the pERK1/2 activity result is “failed to show any pERK activity”. For the same compound, in data set [7] (in vivo), the half-life stood at 23.9 min, the clearance was found to be 5.7 mL/min/kg and the Vd came out at 0.4 L/kg. Moreover, in [7], the “opioid-like adverse effects (e.g. respiratory depression, sedation)” value is listed as “no sign of opioid-like adverse effects”. For the same compound, in [1], the “Area under the curve (AUC) efficacy compared to U50488H” value was “significantly better efficacy than U50488H” and the “Efficacy Index (Ie) relative to morphine” value was “statistically significantly greater Ie over morphine”.
On to `CC(C)C[C@H](NC(=O)[C@H](Cc1ccc(Cl)cc1)NC(=O)CN(C)C(=O)[C@@H](N)Cc1ccc(O)cc1)C(=O)N[C@@H](CCCNC(=N)N)C(=O)N[C@H](CCCNC(=N)N)C(=O)NCCCCCCCC(N)=O` [SEQ ID NO. 24, NH2-Tyr-Sar-(4-Cl)Phe-Leu-Arg-DArg-C7H14-CONH2] (H-Y[Sar][Phe(4-Cl)]LR[dR][Aoc]-NH2), for which, in data set [2], the EC50 was found to be 3.87 nM and the “cAMP activity in the presence” value is “significantly inhibited”. In data set [3], this compound came in with a half-maximal effective concentration (EC50) greater than 10000 nM. On Mu opioid receptor (MOR), this compound showed a 50% effective concentration (EC50) greater than 10000 nM. Further, at KOR [5], half-maximal inhibition (IC50) required 72.6 nM and the Ki was 6.7 nM. The “KOR desensitisation (change of cAMP maximal response after pre-treatment)” value on KOR [6] is on record as “modest desensitisation”. Besides, on KOPr, the “bias factor (β) relative to U50488H” value is given as “bias towards cAMP” and the pERK1/2 activity result is given as “some influence over pERK induction”. Besides, in data set [7] (plasma), the half-life is 12.8 min, the clearance amounted to 26.3 mL/min/kg and the Vd came to 1.7 L/kg. The “opioid-like adverse effects (e.g. respiratory depression, sedation)” value in data set [7] is on record as “No adverse effects were observed”. The “Efficacy Index (Ie) relative to morphine” value in data set [1] is “statistically significantly greater Ie over morphine”.
